Source: ChEMBL document CHEMBL1909046, “DrugMatrix in vitro pharmacology data”

Columns and labels:
[1] = target: Cytochrome P450 2D6 (Homo sapiens, UniProt P10635); conditions: bti-tn-5b1-4; note: in other assays of this panel Not Active means under 50% inhibition at 10 µM
[2] = target: Cytochrome P450 2C9 (Homo sapiens, UniProt P11712); conditions: bti-tn-5b1-4; note: in other assays of this panel Not Active means under 50% inhibition at 10 µM
[3] = target: Voltage-gated inwardly rectifying potassium channel KCNH2 (Homo sapiens, UniProt Q12809); conditions: hek293; note: in other assays of this panel Not Active means under 50% inhibition at 10 µM
Sequence of Voltage-gated inwardly rectifying potassium channel KCNH2 (Q12809 whole entry): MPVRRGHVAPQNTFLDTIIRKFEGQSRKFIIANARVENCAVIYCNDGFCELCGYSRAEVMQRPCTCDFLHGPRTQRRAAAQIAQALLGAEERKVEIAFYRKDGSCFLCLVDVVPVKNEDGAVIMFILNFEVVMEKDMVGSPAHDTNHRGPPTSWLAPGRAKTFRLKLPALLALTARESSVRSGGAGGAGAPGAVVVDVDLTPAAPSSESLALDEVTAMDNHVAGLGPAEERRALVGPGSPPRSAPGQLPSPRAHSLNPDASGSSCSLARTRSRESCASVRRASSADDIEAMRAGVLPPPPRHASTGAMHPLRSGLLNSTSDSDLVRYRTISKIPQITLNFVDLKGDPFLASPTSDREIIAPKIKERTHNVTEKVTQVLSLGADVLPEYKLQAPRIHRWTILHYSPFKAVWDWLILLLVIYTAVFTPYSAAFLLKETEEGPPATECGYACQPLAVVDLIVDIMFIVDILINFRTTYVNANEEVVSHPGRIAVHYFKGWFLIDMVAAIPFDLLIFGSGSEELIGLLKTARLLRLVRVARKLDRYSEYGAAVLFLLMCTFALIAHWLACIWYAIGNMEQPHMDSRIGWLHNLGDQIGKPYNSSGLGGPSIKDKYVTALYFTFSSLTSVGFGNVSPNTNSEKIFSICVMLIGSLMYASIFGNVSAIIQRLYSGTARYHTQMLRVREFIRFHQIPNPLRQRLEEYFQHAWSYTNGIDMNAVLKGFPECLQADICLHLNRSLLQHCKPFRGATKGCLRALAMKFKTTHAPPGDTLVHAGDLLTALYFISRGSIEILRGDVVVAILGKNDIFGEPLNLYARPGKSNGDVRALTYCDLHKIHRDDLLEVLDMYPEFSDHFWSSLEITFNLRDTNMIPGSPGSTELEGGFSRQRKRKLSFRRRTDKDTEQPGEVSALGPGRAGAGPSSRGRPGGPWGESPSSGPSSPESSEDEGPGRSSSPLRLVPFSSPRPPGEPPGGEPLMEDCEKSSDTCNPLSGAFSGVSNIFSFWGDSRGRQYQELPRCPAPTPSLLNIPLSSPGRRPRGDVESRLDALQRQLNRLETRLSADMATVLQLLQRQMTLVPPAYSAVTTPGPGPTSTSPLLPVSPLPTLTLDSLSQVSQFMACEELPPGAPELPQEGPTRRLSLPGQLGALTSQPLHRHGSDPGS

[4] = target: Cytochrome P450 2C19 (Homo sapiens, UniProt P33261); conditions: bti-tn-5b1-4; note: in other assays of this panel Not Active means under 50% inhibition at 10 µM
Sequence of Cytochrome P450 2C19 (P33261 whole entry): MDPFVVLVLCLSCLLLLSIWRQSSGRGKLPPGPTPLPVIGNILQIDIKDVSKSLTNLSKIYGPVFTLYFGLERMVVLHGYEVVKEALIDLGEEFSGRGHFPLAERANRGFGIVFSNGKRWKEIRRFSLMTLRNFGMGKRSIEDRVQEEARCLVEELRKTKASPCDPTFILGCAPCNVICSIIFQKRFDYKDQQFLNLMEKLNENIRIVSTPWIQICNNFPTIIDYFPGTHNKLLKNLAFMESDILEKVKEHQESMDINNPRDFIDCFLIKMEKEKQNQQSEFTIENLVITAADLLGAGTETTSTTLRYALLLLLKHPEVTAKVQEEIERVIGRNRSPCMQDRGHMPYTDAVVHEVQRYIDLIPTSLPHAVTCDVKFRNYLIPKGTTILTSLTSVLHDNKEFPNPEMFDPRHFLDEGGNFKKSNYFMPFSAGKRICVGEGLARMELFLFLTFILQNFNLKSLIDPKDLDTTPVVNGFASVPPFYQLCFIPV

[5] = target: Sodium-dependent noradrenaline transporter (Homo sapiens, UniProt P23975); assay: DRUGMATRIX: Norepinephrine Transporter radioligand binding (ligand: [125I] RTI-55); assay type: cell membranes, MDCK, Membrane; conditions: Not Active = under 50% inhibition at 10 µM; for Ki: read-out: Ki
Sequence of Sodium-dependent noradrenaline transporter (P23975 whole entry): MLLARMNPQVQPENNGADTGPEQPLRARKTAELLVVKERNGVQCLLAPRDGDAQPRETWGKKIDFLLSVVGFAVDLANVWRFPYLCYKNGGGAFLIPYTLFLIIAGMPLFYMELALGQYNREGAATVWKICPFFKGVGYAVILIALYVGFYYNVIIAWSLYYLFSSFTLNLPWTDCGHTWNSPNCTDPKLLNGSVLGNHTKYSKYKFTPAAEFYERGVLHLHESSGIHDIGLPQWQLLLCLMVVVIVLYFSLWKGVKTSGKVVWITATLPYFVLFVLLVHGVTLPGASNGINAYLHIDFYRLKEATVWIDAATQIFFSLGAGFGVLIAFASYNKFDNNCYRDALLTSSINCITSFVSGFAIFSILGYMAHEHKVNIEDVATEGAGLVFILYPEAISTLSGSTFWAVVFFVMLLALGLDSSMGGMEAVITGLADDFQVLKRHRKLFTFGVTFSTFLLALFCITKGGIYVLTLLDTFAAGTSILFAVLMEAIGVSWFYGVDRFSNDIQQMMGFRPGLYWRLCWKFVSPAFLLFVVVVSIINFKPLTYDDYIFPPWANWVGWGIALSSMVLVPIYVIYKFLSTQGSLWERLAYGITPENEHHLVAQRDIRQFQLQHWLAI

[6] = target: T1, Cytochrome P450 1A2 (Homo sapiens, UniProt P05177); conditions: bti-tn-5b1-4; note: in other assays of this panel Not Active means under 50% inhibition at 10 µM
T1 sequence (P05177 whole entry): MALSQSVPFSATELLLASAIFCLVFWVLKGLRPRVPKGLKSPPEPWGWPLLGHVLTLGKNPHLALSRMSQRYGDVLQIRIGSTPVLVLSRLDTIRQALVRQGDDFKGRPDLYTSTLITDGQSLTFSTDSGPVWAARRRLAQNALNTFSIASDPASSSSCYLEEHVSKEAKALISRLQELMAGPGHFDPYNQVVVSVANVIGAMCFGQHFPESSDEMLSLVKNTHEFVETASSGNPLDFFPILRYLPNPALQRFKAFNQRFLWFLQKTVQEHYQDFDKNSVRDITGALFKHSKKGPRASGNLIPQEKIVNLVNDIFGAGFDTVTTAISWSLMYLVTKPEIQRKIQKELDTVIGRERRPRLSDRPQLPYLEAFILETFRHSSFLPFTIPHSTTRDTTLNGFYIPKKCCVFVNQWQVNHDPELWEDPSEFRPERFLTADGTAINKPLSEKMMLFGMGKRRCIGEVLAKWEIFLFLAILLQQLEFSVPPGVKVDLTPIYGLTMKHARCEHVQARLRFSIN

[7] = target: Cytochrome P450 3A4 (Homo sapiens, UniProt P08684); conditions: bti-tn-5b1-4; note: in other assays of this panel Not Active means under 50% inhibition at 10 µM
Sequence of Cytochrome P450 3A4 (P08684 whole entry): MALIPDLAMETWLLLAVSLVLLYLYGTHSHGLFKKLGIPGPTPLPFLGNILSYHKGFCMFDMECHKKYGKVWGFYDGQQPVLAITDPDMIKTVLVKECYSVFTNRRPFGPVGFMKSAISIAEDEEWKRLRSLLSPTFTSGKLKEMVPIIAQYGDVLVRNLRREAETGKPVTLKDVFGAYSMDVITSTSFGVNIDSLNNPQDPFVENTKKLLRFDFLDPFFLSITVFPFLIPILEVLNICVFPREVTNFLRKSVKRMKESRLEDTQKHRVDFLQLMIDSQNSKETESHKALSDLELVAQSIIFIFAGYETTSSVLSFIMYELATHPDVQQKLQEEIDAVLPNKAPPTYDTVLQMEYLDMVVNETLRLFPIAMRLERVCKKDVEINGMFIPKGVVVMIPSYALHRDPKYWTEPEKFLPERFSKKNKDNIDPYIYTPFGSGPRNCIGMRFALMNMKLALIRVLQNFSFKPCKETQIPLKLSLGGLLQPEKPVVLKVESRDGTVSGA

[8] = target: T2, Glucocorticoid receptor (Homo sapiens, UniProt P04150); conditions: hela s3; note: in other assays of this panel Not Active means under 50% inhibition at 10 µM
T2 sequence (P04150 whole entry): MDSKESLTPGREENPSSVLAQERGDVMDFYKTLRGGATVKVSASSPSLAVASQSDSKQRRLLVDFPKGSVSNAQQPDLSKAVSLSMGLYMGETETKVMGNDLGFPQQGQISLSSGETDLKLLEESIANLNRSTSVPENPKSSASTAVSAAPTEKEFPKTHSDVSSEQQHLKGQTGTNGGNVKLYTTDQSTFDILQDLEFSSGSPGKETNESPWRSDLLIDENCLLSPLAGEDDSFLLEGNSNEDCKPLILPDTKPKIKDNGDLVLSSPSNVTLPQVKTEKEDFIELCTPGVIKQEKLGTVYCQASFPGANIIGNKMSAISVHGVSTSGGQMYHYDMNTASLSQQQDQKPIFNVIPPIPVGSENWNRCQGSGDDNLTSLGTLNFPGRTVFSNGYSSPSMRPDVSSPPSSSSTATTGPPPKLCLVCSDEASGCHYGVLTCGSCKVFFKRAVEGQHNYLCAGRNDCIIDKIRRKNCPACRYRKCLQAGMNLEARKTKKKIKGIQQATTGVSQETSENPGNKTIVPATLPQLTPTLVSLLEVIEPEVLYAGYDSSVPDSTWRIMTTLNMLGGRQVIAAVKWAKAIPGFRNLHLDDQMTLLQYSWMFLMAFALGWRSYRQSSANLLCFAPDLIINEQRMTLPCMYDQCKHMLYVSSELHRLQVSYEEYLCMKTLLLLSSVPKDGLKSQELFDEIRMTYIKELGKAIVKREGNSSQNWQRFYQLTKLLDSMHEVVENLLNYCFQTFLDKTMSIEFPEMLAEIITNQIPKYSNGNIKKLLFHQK

[9] = target: Estrogen receptor beta (Homo sapiens, UniProt Q92731); conditions: sf9; note: in other assays of this panel Not Active means under 50% inhibition at 10 µM
Sequence of Estrogen receptor beta (Q92731 whole entry): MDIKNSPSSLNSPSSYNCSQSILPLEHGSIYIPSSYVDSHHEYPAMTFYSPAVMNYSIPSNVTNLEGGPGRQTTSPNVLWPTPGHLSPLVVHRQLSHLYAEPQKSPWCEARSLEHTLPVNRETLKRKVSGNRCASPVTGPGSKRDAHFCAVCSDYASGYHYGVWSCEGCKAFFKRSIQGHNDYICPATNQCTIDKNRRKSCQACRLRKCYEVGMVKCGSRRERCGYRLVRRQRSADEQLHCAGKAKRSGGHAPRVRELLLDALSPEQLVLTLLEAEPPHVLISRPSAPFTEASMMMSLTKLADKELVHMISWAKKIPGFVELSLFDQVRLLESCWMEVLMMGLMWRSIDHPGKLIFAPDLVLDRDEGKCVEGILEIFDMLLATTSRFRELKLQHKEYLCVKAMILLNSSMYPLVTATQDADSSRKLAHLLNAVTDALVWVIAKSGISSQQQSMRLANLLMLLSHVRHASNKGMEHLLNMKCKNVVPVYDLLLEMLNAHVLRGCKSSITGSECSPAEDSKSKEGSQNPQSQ

Sequence of Cytochrome P450 2C9 (P11712 whole entry): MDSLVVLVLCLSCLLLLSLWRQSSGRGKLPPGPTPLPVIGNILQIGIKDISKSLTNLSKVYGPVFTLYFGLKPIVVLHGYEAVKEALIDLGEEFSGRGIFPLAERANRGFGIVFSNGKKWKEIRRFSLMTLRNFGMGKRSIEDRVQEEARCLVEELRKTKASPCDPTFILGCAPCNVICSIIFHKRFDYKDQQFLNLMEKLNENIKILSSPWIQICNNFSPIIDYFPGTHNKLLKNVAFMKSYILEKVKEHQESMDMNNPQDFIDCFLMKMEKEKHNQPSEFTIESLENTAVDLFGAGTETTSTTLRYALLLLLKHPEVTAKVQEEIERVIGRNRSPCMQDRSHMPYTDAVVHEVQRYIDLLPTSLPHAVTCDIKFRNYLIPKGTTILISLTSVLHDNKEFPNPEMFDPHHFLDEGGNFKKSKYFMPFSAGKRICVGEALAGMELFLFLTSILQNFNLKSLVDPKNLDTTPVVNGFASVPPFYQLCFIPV
Sequence of Cytochrome P450 2D6 (P10635 whole entry): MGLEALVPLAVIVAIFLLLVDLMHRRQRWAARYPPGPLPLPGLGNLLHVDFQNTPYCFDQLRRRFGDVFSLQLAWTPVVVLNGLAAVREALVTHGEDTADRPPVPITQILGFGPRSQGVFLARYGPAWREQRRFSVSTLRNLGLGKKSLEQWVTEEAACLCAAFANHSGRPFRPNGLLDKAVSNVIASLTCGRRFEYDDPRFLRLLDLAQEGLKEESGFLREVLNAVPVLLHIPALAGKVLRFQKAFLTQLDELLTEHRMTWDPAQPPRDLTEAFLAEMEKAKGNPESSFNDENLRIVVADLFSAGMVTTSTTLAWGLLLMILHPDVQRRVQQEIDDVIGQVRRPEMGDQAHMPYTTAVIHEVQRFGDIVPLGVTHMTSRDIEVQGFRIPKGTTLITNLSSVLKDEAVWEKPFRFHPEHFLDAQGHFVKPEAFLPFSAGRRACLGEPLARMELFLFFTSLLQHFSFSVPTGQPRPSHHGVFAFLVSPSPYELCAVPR

| SMILES | IC50 [1] | Ki [1] | IC50 [2] | Ki [2] | IC50 [3] | Ki [3] | IC50 [4] | Ki [4] | IC50 ([5]; mdck) | IC50 [6] | Ki [6] | IC50 [7] | Ki [7] | IC50 [8] | IC50 [9] | IC50 ([5]; read-out: IC50) [nM] | Ki [5] [nM] |
| --- | --- | --- | --- | --- | --- | --- | --- | --- | --- | --- | --- | --- | --- | --- | --- | --- | --- |
| CC(C)(C)NC(=O)[C@@H]1CN(Cc2cccnc2)CCN1C[C@@H](O)C[C@@H](Cc1ccccc1)C(=O)N[C@H]1c2ccccc2C[C@H]1O.O | Not Active | Not Active | Not Active | Not Active | Not Active | Not Active | Not Active | Not Active | Not Active | Not Active | Not Active |  |  |  |  |  |  |
| COc1ccc(CCN2CCC(Nc3nc4ccccc4n3Cc3ccc(F)cc3)CC2)cc1 [ASTEMIZOLE] | Not Active | Not Active | Not Active | Not Active |  |  | Not Active | Not Active |  | Not Active | Not Active | Not Active | Not Active | Not Active |  |  |  |
| CN(C)CCCN1c2ccccc2CCc2ccc(Cl)cc21 [CLOMIPRAMINE] |  |  | Not Active | Not Active | Not Active | Not Active | Not Active | Not Active |  | Not Active | Not Active | Not Active | Not Active | Not Active |  |  |  |
| O=C(CCCN1CCC(O)(c2ccc(Cl)cc2)CC1)c1ccc(F)cc1 [HALOPERIDOL] | Not Active | Not Active | Not Active | Not Active | Not Active | Not Active | Not Active | Not Active |  | Not Active | Not Active | Not Active | Not Active | Not Active | Not Active |  |  |
| Nc1nnc(-c2cccc(Cl)c2Cl)c(N)n1 [LAMOTRIGINE] | Not Active | Not Active | Not Active | Not Active |  |  | Not Active | Not Active |  | Not Active | Not Active |  |  |  | Not Active |  |  |
| NCCCC[C@H](N[C@@H](CCc1ccccc1)C(=O)O)C(=O)N1CCC[C@H]1C(=O)O [LISINOPRIL ANHYDROUS] | Not Active | Not Active | Not Active | Not Active |  |  | Not Active | Not Active | Not Active |  |  |  |  | Not Active |  |  |  |
| Clc1ccc(C(c2ccccc2Cl)C(Cl)Cl)cc1 (stereo not drawn) [MITOTANE] | Not Active | Not Active | Not Active | Not Active | Not Active | Not Active | Not Active | Not Active |  | Not Active | Not Active | Not Active | Not Active | Not Active | Not Active | 819 | 812 |
| O=C1c2c(O)ccc(O)c2C(=O)c2c(NCCNCCO)ccc(NCCNCCO)c21 [MITOXANTRONE] |  |  |  |  |  |  |  |  |  |  |  |  |  | Not Active | Not Active | 4990 | 4950 |
| NNc1ccccc1 [PHENYLHYDRAZINE] |  |  |  |  | Not Active | Not Active |  |  | Not Active |  |  |  |  |  | Not Active |  |  |
| NC(=O)c1ncn([C@@H]2O[C@H](CO)[C@@H](O)[C@H]2O)n1 [RIBAVIRIN] | Not Active | Not Active |  |  | Not Active | Not Active | Not Active | Not Active | Not Active | Not Active | Not Active | Not Active | Not Active | Not Active |  |  |  |
| CN[C@@H]1[C@@H](O)[C@@H](O[C@@H]2[C@@H](O)[C@H](O[C@H]3OC(CN)=CC[C@H]3N)[C@@H](N)C[C@H]2N)OC[C@]1(C)O [SISOMICIN] |  |  |  |  | Not Active | Not Active |  |  | Not Active |  |  |  |  | Not Active |  |  |  |
| C[C@]12Cc3c[nH]nc3C[C@@H]1CC[C@@H]1[C@@H]2CC[C@@]2(C)[C@H]1CC[C@]2(C)O [STANOZOLOL] |  |  |  |  | Not Active | Not Active |  |  | Not Active | Not Active | Not Active | Not Active | Not Active | Not Active |  |  |  |
| Cc1cc(NS(=O)(=O)c2ccc(N)cc2)no1 [SULFAMETHOXAZOLE] |  |  |  |  |  |  |  |  | Not Active |  |  |  |  | Not Active | Not Active |  |  |
| Nc1ccc(S(N)(=O)=O)cc1 [SULFANILAMIDE] |  |  |  |  |  |  |  |  | Not Active |  |  |  |  | Not Active | Not Active |  |  |
| CC(C)(C)NCC(O)c1cc(O)cc(O)c1 (stereo not drawn) [TERBUTALINE] | Not Active | Not Active | Not Active | Not Active | Not Active | Not Active | Not Active | Not Active | Not Active | Not Active | Not Active | Not Active | Not Active |  |  |  |  |
| CN(C)[C@@H]1C(O)=C(C(N)=O)C(=O)[C@@]2(O)C(O)=C3C(=O)c4c(O)cccc4[C@@](C)(O)[C@H]3C[C@@H]12 [TETRACYCLINE] | Not Active | Not Active |  |  | Not Active | Not Active | Not Active | Not Active | Not Active |  |  | Not Active | Not Active | Not Active | Not Active |  |  |
| CN1[C@@H]2CC[C@H]1C[C@@H](OC(=O)c1c[nH]c3ccccc13)C2 [TROPISETRON] | Not Active | Not Active | Not Active | Not Active | Not Active | Not Active | Not Active | Not Active | Not Active | Not Active | Not Active | Not Active | Not Active |  | Not Active |  |  |
| COc1ccc(C(CN(C)C)C2(O)CCCCC2)cc1 (stereo not drawn) [VENLAFAXINE] | Not Active | Not Active | Not Active | Not Active | Not Active | Not Active | Not Active | Not Active |  | Not Active | Not Active | Not Active | Not Active |  |  |  |  |
